Where two headings read alike, the source gives them in different places.
Tests used:
Type in all cases: cell-based
CFTR-G178R = target: T1, CFTR-G178R (Homo sapiens, UniProt P13569, G178R); test: YFP-halide influx assay for the CFTR-G178R
T1 construct: expressed in transfected cells
Excerpt: (§1) The YFP halide influx assay measures the functionality of the cystic fibrosis Transmembrane Conductance regulator (CFTR) channels. The assay is used to evaluate the capacity of compounds to increase the channel opening of existing mutant CFTR channels in the membrane. It makes use of the observation that the yellow fluorescent protein (YFP) variant YFP H148Q, I152L, […] has its fluorescence substantially quenched by halide ions like Cl^− and I^−. (Galietta, Haggie, & Verkman, 2001)
(§2) For this purpose, HEK293-cells are seeded in 96 well plates. During seeding, the cells are reverse-transfected with plasmid vectors that direct the expression of the CFTR G551D mutant and of the YFP reporter. Cells are incubated at 37° C., 5% CO2 for 24 hours so as to allow for sufficient expression of the CFTR protein.
(§3) The I^−-induced quenching of fluorescence is recorded immediately after injection of I^− for 7 seconds. The capacity of a compound to increase the channel opening is directly correlated with the decrease in fluorescence, and is expressed as (1-(fluorescence after 7 seconds (F)/fluorescence before injection (F0))) and an EC50 can be derived from a (1-F/F0) vs compound concentration plot.
(§4) Similar YHA assays were developed for other channel gating defective or channel conductance defective CFTR mutants to determine effect of compound on channel activity. Examples of mutants are G178R, G1349D, S549N, R117H, R334W. This assay is also used for additional class I CFTR mutants, including G542X, W1282X; class II mutants including N1303K, and for class III mutants including S1251N.

CFTR-G1349D = target: T2, CFTR-G1349D (Homo sapiens, UniProt P13569, G1349D); test: YFP-halide influx assay for the CFTR-G1349D
T2 construct: expressed in transfected cells
T2 sequence (P13569 whole entry G1349D): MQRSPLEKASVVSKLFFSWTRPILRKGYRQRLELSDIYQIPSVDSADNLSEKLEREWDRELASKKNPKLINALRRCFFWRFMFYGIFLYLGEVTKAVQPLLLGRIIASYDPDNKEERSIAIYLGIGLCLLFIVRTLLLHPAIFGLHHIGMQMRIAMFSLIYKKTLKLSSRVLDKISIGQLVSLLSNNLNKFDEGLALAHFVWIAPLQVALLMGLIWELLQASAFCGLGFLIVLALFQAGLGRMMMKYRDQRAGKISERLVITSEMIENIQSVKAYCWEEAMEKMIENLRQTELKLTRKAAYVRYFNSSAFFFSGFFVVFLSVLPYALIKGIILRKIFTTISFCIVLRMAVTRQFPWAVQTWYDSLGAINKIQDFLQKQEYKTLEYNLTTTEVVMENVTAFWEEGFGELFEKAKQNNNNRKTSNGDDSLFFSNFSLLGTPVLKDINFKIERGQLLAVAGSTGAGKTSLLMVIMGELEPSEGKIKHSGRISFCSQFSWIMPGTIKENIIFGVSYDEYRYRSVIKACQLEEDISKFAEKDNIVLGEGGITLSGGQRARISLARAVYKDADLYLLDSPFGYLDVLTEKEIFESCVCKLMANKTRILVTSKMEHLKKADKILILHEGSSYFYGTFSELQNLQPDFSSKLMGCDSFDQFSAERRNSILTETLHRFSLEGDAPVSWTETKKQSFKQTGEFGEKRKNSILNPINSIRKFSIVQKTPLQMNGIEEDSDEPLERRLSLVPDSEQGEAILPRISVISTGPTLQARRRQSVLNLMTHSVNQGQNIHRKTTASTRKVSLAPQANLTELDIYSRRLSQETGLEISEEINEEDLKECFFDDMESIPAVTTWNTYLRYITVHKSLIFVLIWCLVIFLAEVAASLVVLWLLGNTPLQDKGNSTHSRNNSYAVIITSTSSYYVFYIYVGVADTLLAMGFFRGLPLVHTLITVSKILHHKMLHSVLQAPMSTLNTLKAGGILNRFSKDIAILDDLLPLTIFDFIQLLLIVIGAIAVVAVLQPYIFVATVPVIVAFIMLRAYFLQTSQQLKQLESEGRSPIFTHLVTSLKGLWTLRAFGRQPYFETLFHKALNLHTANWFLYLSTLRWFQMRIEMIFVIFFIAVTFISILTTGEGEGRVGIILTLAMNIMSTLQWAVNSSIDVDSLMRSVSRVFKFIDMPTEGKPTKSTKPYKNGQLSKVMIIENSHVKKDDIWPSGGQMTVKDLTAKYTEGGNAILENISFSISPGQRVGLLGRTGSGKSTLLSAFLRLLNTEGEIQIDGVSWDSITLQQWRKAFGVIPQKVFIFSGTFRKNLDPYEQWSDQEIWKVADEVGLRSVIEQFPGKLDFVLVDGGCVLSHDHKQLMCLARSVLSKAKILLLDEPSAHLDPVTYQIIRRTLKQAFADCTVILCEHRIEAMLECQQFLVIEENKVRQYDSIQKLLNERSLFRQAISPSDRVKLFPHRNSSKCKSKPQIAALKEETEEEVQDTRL
Excerpt: as §1, §2, §3, §4

CFTR G551D mutant = target: T3, CFTR G551D mutant (Homo sapiens, UniProt P13569, G551D); test: YFP-halide influx assay for the CFTR-G551D mutation; settings: HEK293 cells, forskolin 10.67 μM
T3 construct: expressed in transfected cells; host or cells: HEK293 (reverse transfection with plasmid)
T3 sequence (P13569 whole entry G551D): as the sequence (P13569 whole entry G1349D) above, with G551D, D1349G counted along it
Procedure, shortened: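 HEK293 cells reverse-transfected with CFTR G551D and YFP H148Q/I152L/F47L halide sensor, expressed 24 h at 37 °C. Iodide-induced fluorescence quench recorded 7 s after I− injection; response = 1−F/F0, with EC50 from plot against compound concentration.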

CFTR-S549N = target: T4, CFTR-S549N (Homo sapiens, UniProt P13569, S549N); test: YFP-halide influx assay for the CFTR-S549N
T4 construct: expressed in transfected cells
T4 sequence (P13569 whole entry S549N): as the sequence (P13569 whole entry G1349D) above, with S549N, D1349G counted along it
Excerpt: as §1, §2, §3, §4

CFTR ΔF508 mutant [1] = target: T5, CFTR ΔF508 mutant (Homo sapiens, UniProt P13569, DEL508-508); test: YFP-halide influx assay for the CFTR-ΔF508 mutation (384 well, FDSS/μCell); settings: CFBE41o- cells, CFTR-ΔF508, 1×D-PBS, fluorescence after 36 seconds
T5 construct: expressed in transfected cells; host or cells: CFBE41o- (adenoviral transduction)
T5 sequence (P13569 with tags, fused parts or gaps DEL508-508): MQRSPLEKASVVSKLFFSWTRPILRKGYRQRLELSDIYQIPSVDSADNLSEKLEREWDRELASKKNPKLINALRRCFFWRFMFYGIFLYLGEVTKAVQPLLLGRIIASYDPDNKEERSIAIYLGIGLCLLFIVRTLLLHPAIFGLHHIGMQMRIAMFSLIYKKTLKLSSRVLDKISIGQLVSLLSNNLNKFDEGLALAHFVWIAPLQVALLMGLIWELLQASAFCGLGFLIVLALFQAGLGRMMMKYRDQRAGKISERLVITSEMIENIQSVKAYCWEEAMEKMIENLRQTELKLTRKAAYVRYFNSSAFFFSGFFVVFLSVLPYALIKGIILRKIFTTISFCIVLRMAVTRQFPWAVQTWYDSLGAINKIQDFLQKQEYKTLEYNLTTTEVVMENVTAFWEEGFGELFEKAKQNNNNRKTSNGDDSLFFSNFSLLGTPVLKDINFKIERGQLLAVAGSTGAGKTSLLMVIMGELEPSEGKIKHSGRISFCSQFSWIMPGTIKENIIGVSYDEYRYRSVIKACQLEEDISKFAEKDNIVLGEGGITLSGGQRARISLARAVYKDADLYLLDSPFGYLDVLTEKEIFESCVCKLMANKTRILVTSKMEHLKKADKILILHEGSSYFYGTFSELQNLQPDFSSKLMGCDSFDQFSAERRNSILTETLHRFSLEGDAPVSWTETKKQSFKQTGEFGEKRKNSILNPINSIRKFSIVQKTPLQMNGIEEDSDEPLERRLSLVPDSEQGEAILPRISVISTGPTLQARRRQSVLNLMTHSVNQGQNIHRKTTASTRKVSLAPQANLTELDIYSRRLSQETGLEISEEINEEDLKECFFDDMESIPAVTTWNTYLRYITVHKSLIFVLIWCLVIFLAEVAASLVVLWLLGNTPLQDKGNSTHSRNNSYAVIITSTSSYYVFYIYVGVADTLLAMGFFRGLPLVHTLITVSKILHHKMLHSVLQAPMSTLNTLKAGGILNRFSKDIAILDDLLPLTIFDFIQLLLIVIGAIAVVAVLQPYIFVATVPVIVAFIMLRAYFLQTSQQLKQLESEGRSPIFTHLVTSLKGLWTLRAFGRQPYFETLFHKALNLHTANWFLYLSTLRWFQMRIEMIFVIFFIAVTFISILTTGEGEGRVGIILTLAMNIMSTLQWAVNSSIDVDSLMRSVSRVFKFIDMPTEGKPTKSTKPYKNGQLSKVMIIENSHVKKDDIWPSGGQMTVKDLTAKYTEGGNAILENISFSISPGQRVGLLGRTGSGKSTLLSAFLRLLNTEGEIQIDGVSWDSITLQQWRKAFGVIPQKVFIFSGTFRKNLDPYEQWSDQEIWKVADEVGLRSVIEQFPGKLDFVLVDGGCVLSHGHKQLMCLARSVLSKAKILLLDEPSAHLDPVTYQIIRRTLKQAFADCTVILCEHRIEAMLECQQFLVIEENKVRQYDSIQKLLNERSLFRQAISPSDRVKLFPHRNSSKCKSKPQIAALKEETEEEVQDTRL
Procedure, shortened: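 Potentiator read-out as 1−F/F0, F taken 36 s after iodide addition, EC50 fitted against compound concentration. Cells: CFBE41o- expressing ΔF508 CFTR plus halide-sensitive YFP via adenovirus, rescued by 27 °C for 24 h or 24 h modulator at 37 °C.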

CFTR-R117H = target: T6, CFTR-R117H (Homo sapiens, UniProt P13569, R117H); test: YFP-halide influx assay for the CFTR-R117H
T6 construct: expressed in transfected cells
T6 sequence (P13569 whole entry R117H): as the sequence (P13569 whole entry G1349D) above, with R117H, D1349G counted along it
Excerpt: as §1, §2, §3, §4

CFTR ΔF508 mutant [2] = target: T5, CFTR ΔF508 mutant; test: YFP-halide influx assay for the CFTR-ΔF508 mutation, gluconate buffer; settings: CFBE41o- cells, forskolin 10.67 μM
Procedure, shortened: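 CFBE41o- cells adenovirally transduced with CFTR ΔF508 and YFP H148Q/I152L, then held 24 h at 27 °C or treated with CFTR modulator 24 h at 37 °C. I− quenching recorded for 7 s after injection; activity as 1-F/F0, EC50 from concentration plot.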

CFTR ΔF508 mutant [3] = target: T5, CFTR ΔF508 mutant; test: YFP-halide influx assay for the CFTR-ΔF508 mutation, PBS buffer (96 well); settings: CFBE41o- cells, forskolin 10.67 μM
Procedure, shortened: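 CFBE41o- cells were adenovirally transduced with CFTR ΔF508 and YFP H148Q/I152L, then incubated 24 h at 27 °C or with a CFTR modulator at 37 °C. I⁻-induced fluorescence quenching was recorded over 7 s after injection; response expressed as 1−F/F0, with EC50 from concentration plots.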

T1 sequence (P13569 whole entry G178R): as the sequence (P13569 whole entry G1349D) above, with G178R, D1349G counted along it

Compound | EC50 (CFTR-G178R) [nM] | EC50 (CFTR-G1349D) [nM] | EC50 (CFTR G551D mutant) [nM] | EC50 (CFTR-S549N) [nM] | EC50 (CFTR ΔF508 mutant [1]) [nM] | EC50 (CFTR-R117H) [nM] | EC50 (CFTR G551D mutant; class symbol) [nM] | EC50 (CFTR-S549N; class symbol) [nM] | EC50 (CFTR ΔF508 mutant [2]) [nM] | EC50 (CFTR ΔF508 mutant [3]) [nM] | EC50 (CFTR-G1349D; class symbol) [nM]
CC(C)(O)C(=O)Nc1sc(S(=O)(=O)c2cc(C(F)(F)F)ncc2Cl)cc1C(N)=O [Compound 390, 5-[[5-chloro-2-(trifluoromethyl)-4-pyridyl]sulfonyl]-2-[(2-hydroxy-2-methyl-propanoyl)amino] thiophene-3-carboxamide] | 103 | 293 | 668 | 322 | 44.1 | 221 |  |  |  |  | 
CC(C)(O)C(=O)Nc1sc(S(=O)(=O)c2ccc(C(F)(F)F)nc2)cc1C(N)=O [Compound 389, 2-[(2-hydroxy-2-methyl-propanoyl)amino]-5-[[6-(trifluoromethyl)-3-pyridyl]sulfonyl] thiophene-3-carboxamide] | 91.5 | 204 | 813 | 531 | 46.3 | 247 |  |  |  |  | 
CC(O)C(=O)Nc1sc(S(=O)(=O)c2ccc(F)cc2C(F)(F)F)cc1C(N)=O (stereo not drawn) [Compound 325, 5-[4-fluoro-2-(trifluoromethyl)phenyl] sulfonyl-2-(2-hydroxypropanoylamino) thiophene-3-carboxamide] | 1880 | 2570 | 2790 | 2140 | 11.1 | 793 |  |  |  |  | 
CC(C)(O)C(=O)Nc1sc(S(=O)(=O)c2c(F)cc(F)cc2OC(F)F)cc1C(N)=O [Compound 405, 5-[2-(difluoromethoxy)-4,6-difluoro-phenyl]sulfonyl-2-[(2-hydroxy-2-methyl-propanoyl)amino] thiophene-3-carboxamide] | > 1000 | 3330 | 4520 | 1370 | 19.6 | 155 |  |  |  |  | 
CC(C)(O)C(=O)Nc1sc(S(=O)(=O)c2ccc(OC(F)F)cc2)cc1C(N)=O [Compound 380, 5-[4-(difluoromethoxy)phenyl] sulfonyl-2-[(2-hydroxy-2-methyl-propanoyl)amino] thiophene-3-carboxamide] | 107 | 276 | 450 | 387 | 17.6 | 144 |  |  |  |  | 
CC(C)(O)C(=O)Nc1sc(S(=O)(=O)c2cc(Cl)ccc2OC(F)(F)F)cc1C(N)=O [Compound 391, 5-[5-chloro-2-(trifluoromethoxy)phenyl] sulfonyl-2-[(2-hydroxy-2-methyl-propanoyl)amino] thiophene-3-carboxamide] | 12.9 | 25.9 | 53.2 | 42.1 | 14.9 | 33.8 |  |  |  |  | 
CC(C)(O)C(=O)Nc1sc(S(=O)(=O)c2ccc(C#N)cc2C(F)(F)F)cc1C(N)=O [Compound 407, 5-[4-cyano-2-(trifluoromethyl)phenyl] sulfonyl-2-[(2-hydroxy-2-methyl-propanoyl)amino] thiophene-3-carboxamide] | 1530 | 3330 | 3330 | 2860 | 50.6 | 262 |  |  |  |  | 
CC(C)(O)C(=O)Nc1sc(S(=O)(=O)c2cnc(C(F)(F)F)nc2)cc1C(N)=O [Compound 394, 2-[(2-hydroxy-2-methyl-propanoyl)amino]-5-[2-(trifluoromethyl)pyrimidin-5-yl]sulfonyl-thiophene-3-carboxamide] | 3330 | 3330 |  |  | 354 | 3320 | > 1000 | > 1000 |  |  | 
COc1ccc(CN(C)S(=O)(=O)c2cc(C(N)=O)c(NC(=O)c3cc[nH]n3)s2)cc1F [Compound 160, N-(3-carbamoyl-5-(N-(3-fluoro-4-methoxybenzyl)-N-methylsulfamoyl)thiophen-2-yl)-1H-pyrazole-3-carboxamide] |  |  | 272 |  | 210 |  |  |  | 48.4 | 38.7 | 
NC(=O)c1cc(S(=O)(=O)N2CC=C(C(F)(F)F)CC2)sc1NC(=O)c1ccccc1F [Compound 158, 2-(2-fluorobenzamido)-5-(4-(trifluoromethyl)-5,6-dihydropyridin-1(2H)-ylsulfonyl)thiophene-3-carboxamide] |  |  | 1870 |  | 79.5 |  |  |  | 50.5 | 35.5 | 
COc1ccc(CN(C)S(=O)(=O)c2cc(C(N)=O)c(NC(=O)c3cc[nH]n3)s2)cc1 [Compound 171, N-(3-carbamoyl-5-(N-(4-methoxybenzyl)-N-methylsulfamoyl)thiophen-2-yl)-1H-pyrazole-3-carboxamide] |  |  | 756 |  | 81.4 |  |  |  | 104 | 37.5 | 
CN(CCC(F)(F)F)S(=O)(=O)c1cc(C(N)=O)c(NC(=O)c2cc[nH]n2)s1 [Compound 194, N-(3-carbamoyl-5-(N-methyl-N-(3,3,3-trifluoropropyl)sulfamoyl)thiophen-2-yl)-1H-pyrazole-3-carboxamide] |  |  | 185 |  | 20.7 |  |  |  | 154 | 38.3 | 

More lines, now with the values ahead:

EC50 (CFTR-G178R) [nM] | EC50 (CFTR-G1349D) [nM] | EC50 (CFTR G551D mutant) [nM] | EC50 (CFTR-S549N) [nM] | EC50 (CFTR ΔF508 mutant [1]) [nM] | EC50 (CFTR-R117H) [nM] | EC50 (CFTR G551D mutant; class symbol) [nM] | EC50 (CFTR-S549N; class symbol) [nM] | EC50 (CFTR ΔF508 mutant [2]) [nM] | EC50 (CFTR ΔF508 mutant [3]) [nM] | EC50 (CFTR-G1349D; class symbol) [nM] | Compound
1110 | 3330 | 5550 | 1480 | 47.9 | 359 |  |  |  |  |  | CC(C)(O)C(=O)Nc1sc(S(=O)(=O)c2cc(Cl)ncc2C#N)cc1C(N)=O [Compound 432, 5-[(2-chloro-5-cyano-4-pyridyl)sulfonyl]-2-[(2-hydroxy-2-methyl-propanoyl)amino] thiophene-3-carboxamide]
283 | 3330 | 1500 | 702 | 10.7 | 321 |  |  |  |  |  | Cc1cc(C(F)(F)F)cc(S(=O)(=O)c2cc(C(N)=O)c(NC(=O)C(C)(C)O)s2)c1 [Compound 430, 2-[(2-hydroxy-2-methyl-propanoyl)amino]-5-[3-methyl-5-(trifluoromethyl)phenyl] sulfonyl-thiophene-3-carboxamide]
268 | 353 | 773 | 1780 | 17.7 | 351 |  |  |  |  |  | COc1cc(C)cc(S(=O)(=O)c2cc(C(N)=O)c(NC(=O)C(C)(C)O)s2)c1 [Compound 416, 2-[(2-hydroxy-2-methyl-propanoyl)amino]-5-(3-methoxy-5-methyl-phenyl)sulfonyl-thiophene-3-carboxamide]
33.8 | 117 | 1920 | 242 | 16.5 | 173 |  |  |  |  |  | NC(=O)c1cc(S(=O)(=O)c2ccc(OC(F)(F)F)cc2F)sc1NC(=O)C1(CO)CC1 [Compound 435, 5-[2-fluoro-4-(trifluoromethoxy)phenyl] sulfonyl-2-[[1-(hydroxymethyl)cyclopropanecarbonyl]amino] thiophene-3-carboxamide]
44.7 | 134 | 1480 | 64.7 | 12.8 | 71.1 |  |  |  |  |  | Cc1ccc(C(F)(F)F)c(S(=O)(=O)c2cc(C(N)=O)c(NC(=O)C(C)(C)O)s2)n1 [Compound 413, 2-[(2-hydroxy-2-methyl-propanoyl)amino]-5-[[6-methyl-3-(trifluoromethyl)-2-pyridyl]sulfonyl] thiophene-3-carboxamide]
 |  |  | 121 | 6.24 | 264 | > 1000 |  |  |  | > 1000 | Cc1c(S(=O)(=O)c2ccc(OC(F)(F)F)cc2)sc(NC(=O)C(C)(C)O)c1C(N)=O [Compound 437, 2-[(2-hydroxy-2-methyl-propanoyl)amino]-4-methyl-5-[4-(trifluoromethoxy)phenyl]sulfonyl-thiophene-3-carboxamide]

— US9382254B2, “Compounds and pharmaceutical compositions thereof for the treatment of cystic fibrosis” (Galapagos NV, priority 2013, dated 2016)
